Source: patent publication US6458793B1, “Heterocyclic derivatives which inhibit factor Xa” (Zeneca Limited, priority 1997, dated 2002)

melting point: 193.5 °C
SMILES: O=C(c1ccc(-c2ccncc2)nc1)N1CCN(S(=O)(=O)c2ccc3cc(Br)ccc3c2)CC1 (hydrate or solvate) [Example 1, 1-(6-bromonaphth-2-ylsulphonyl)-4-[6-(4-pyridyl)-nicotinoyl]piperazine]
